According to the METLIN SMRT retention time set (Domingo-Almenara et al. 2019):

Assay: gradient 5% acetonitrile 3 min, to 50% in 2 min, to 85% in 15 min, held 3 min, 100 µL/min
Conditions: column: Zorbax Extend-C18 2.1 x 50 mm; eluents: water / acetonitrile, 0.1% formic acid
Procedure, shortened: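 Over 3 months, pure standards in mixtures of ~100 molecules were run by HPLC coupled to a quadrupole time-of-flight mass spectrometer in positive and negative ionization mode. The column was a Zorbax Extend-C18 (2.1 × 50 mm, 1.8 μm) at 100 μL/min, eluted with water and acetonitrile each holding 0.1% formic acid, with 40 μL dead and 900 μL dwell volumes. Retention time was determined from adduct peaks chosen by software and checked manually.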

SMILES | RP-LC retention time [s]
C=CCn1c(=O)c2ccccc2n(Cc2nc(-c3cccc(OCC)c3)no2)c1=O | 1100
O=C(NCc1ccc(F)cc1Cl)C1CCCN(c2nccnc2Sc2ccccc2)C1 (stereo not given) | 1100
CCN1C(=O)COc2ccc(-c3nc(NC(=O)c4ccccc4Br)sc3C)cc21 | 1010
COC(=O)c1ccc(-c2nc3cnccn3c2Nc2ccc(C)c(Cl)c2)cc1 | 1050
COCCN1C(=O)c2cc(-c3ccc(OC)c(OC)c3)nn2CC1(C)C(=O)NC1CCCCC1 (stereo not given) | 824
CN(CC1CCOC1)C(=O)Nc1ccccc1C(F)(F)F (stereo not given) | 713
CC(C)C(=O)N1CCc2cc(-c3ccc(C(=O)NCCN4CCN(C)CC4)cc3)ccc21 | 608
CCc1ccc(CNC(=O)C2CCCN(c3nnc(C)c4c(C)n(-c5ccccc5)nc34)C2)cc1 (stereo not given) | 795
O=S(=O)(c1ccc(-c2ccno2)s1)N1CCN(c2ccccn2)CC1 | 680
COc1cccc(-c2noc(CSc3nccn3-c3ccccc3)n2)c1OC | 857
CCNC(=O)c1nc(C(=O)NCCC(C)C)cs1 | 771
N#Cc1cccc(C(=O)NC2CCN(c3cc(-c4ccc(F)cc4)[nH]n3)C2)c1 (stereo not given) | 712
COc1ccc(NC(=O)N2CCC(n3cnc4cc(F)ccc4c3=O)CC2)c(OC)c1 | 732
Cc1ccc(Nc2ccc(N)cc2S(=O)(=O)O)cc1 | 652
COc1ccc(-c2noc(CN3C(=O)COc4ccc(Cl)cc43)n2)cc1 | 1050
O=C(c1ccsc1)N1CC(Oc2ccc(-c3nc(-c4ccccc4)no3)cc2)C1 | 1120
O=C(CCCc1nc(-c2ccccc2)no1)Nc1nc(-c2ccccc2)cs1 | 1080
O=C(NCCc1csc(-c2cccc(F)c2)n1)c1cccs1 | 905
Cc1oc(-c2[nH]ncc2C(=O)N2CCOCC2)cc1S(=O)(=O)N1CCC(C)CC1 | 703
CCNC(=O)NC1CCN(C(=O)C2CCC2)C1 (stereo not given) | 578
Cc1ccc(C(=O)N2CCN(c3nc(CN4CCOCC4)cs3)CC2)cc1 | 651
CN(CCc1noc(-c2ccc(F)cc2)n1)C(=O)Nc1ccc(F)cc1F | 874
Cc1ccc(CNc2cc(-n3cccn3)ncn2)cc1 | 898
CCOc1ccc(/C=C2\CCc3ccccc3C2=O)cc1 | 1290
CCc1ccc(CNC(=O)c2ccc3ncnc(N4CCCC4)c3c2)cc1 | 697
COC(=O)c1c(NCc2ccc3c(c2)OCO3)c2ccc(F)cc2[nH]c1=O | 734
COC(=O)c1cc(OCC(=O)Nc2ccc3c(c2)OCCO3)c2cc(Cl)ccc2n1 | 851

SMILES | RP-LC retention time [s]
Cc1cc(C)n(CCNC(=O)c2c(F)cccc2F)n1 | 607
O=C(NCC1CCN(S(=O)(=O)C2CC2)CC1)C1(c2ccc(F)cc2)CC1 | 595
CCN(c1cccc(C)c1)S(=O)(=O)c1cc(-c2[nH]ncc2C(=O)N2CCCC2)oc1C | 819
O=C(Nc1ccc(N2CCOCC2)cc1)C1CCN(c2cncnc2N2CCCC2)CC1 | 602
CCOc1cccc(-c2noc(Cn3c(=O)n(-c4ccc(Cl)cc4)c(=O)c4sccc43)n2)c1 | 1130
COc1ccc(OCc2noc(CNC(=O)Nc3ccc(Cl)c(Cl)c3)n2)cc1 | 917
CN1CCO[C@@H](C(=O)NC2CC2)[C@@H]1c1ccccc1 | 562
Cc1nc(-c2cc(S(=O)(=O)Nc3cccc(Cl)c3F)c(C)s2)cs1 | 1030
O=C(c1cc2ccccc2[nH]1)N1CCN(c2cc(-c3cccnc3)[nH]n2)CC1 | 630
Nc1c(C(=O)NCc2ccc3c(c2)OCO3)nsc1C(=O)N1CCN(c2ccccn2)CC1 | 663
Cc1ccc(NC(=O)CSC2=C(C#N)C(c3cccs3)CC(=O)N2)cc1Cl (stereo not given) | 915
COCCC1CCN(C(=O)CN(C)C(=O)c2ccc3cc[nH]c3c2)CC1 | 686
Cc1ccc2c(c1)N(S(C)(=O)=O)CCC(C(=O)Nc1ccc(F)cc1)O2 (stereo not given) | 930
CN(C)CC1CN(C(=O)c2ccc(F)c(F)c2)CC12CCOCC2 (stereo not given) | 578
CCc1nnc([C@@H]2CC(F)(F)CN2C(=O)c2ocnc2C)o1 | 644
COc1ccc(C2CC(=O)N(c3ccc(F)c(Cl)c3)C(=O)C2)cc1 | 980
COCc1nc(C2CCN(S(=O)(=O)Cc3ccccc3)C2)no1 (stereo not given) | 795
COc1ccc2c(c1)C1(CCN(C(=O)NCc3ccc(F)cc3)C1)C(=O)N2 (stereo not given) | 697
Cc1nc2cccnc2n1CCN1CCN(C(=O)Nc2ccc(F)cc2F)CC1 | 585
O=C(CCNc1c(-c2cccc(F)c2)nc2cnccn12)N1CCCC1 | 670
O=C(CN1CCN(C(=O)Cc2cccs2)CC1)c1ccco1 | 538
CC(=O)Nc1ccc(SCCCC(=O)Nc2nc3ccccc3s2)nn1 | 691
CCC(C)NC(=O)c1cc(COc2ccc(NC(=O)C(C)(C)C)cc2)on1 (stereo not given) | 900
O=C(NC1CCCCC1)C1CCN(S(=O)(=O)c2cc(-c3noc(C4CCC4)n3)cs2)CC1 | 1070
O=C(Nc1ccc(F)cc1)C1CCCN(S(=O)(=O)c2c[nH]c(C(=O)N3CCCC3)c2)C1 (stereo not given) | 787
COCc1noc([C@@H]2CC(F)(F)CN2C(=O)c2ocnc2C)n1 | 679
Cc1ccccc1NC(=O)NC1CCN(c2ccccc2)C1=O (stereo not given) | 781

Second part, the compound after the results:

RP-LC retention time [s] | SMILES
665 | COc1ccc(-c2ccc3nc(N4CCC(C(=O)NCCN(C)C)CC4)sc3n2)cc1
701 | CCN1C(=O)c2cccnc2Sc2cc(CNC(=O)c3ccco3)ccc21
576 | CC1=C(C(=O)Nc2ccc(C(=O)NCCCN3CCN(C4CCCCC4)CC3)cc2)SCCO1
672 | CCOc1nccnc1N1CCC(N(C)C(=O)Cc2c(C)noc2C)C1 (stereo not given)
807 | COc1ccc(NC(=O)c2ccc3[nH]c4c(c3c2)CN(C(=O)C2CCC2)CC4)c(OC)c1
757 | CCCn1cc(C(=O)NCCCN(C)C)c(S(=O)(=O)N2CCN(c3ccc(Cl)cc3)CC2)n1
772 | CC(C)n1cnc(S(=O)(=O)N2CCCC(C(=O)Nc3ccccc3F)C2)c1 (stereo not given)
1120 | COc1ccc(Cl)cc1NC(=O)N1CCC(COCc2ccccc2)CC1
966 | CCc1cccc(NC(=O)Cn2c(=O)n(-c3cccc(C)c3)c(=O)c3c2cc(C)n3C)c1
840 | COc1ccc(C)cc1NC(=O)N1CCCC1c1c(C)noc1C (stereo not given)
634 | Cc1cc(=O)n(CC(=O)Nc2cccc(F)c2)c(N2CCCC2)n1
1090 | CCN(CC)S(=O)(=O)c1ccc(F)c(-c2nnc(-c3ccccc3Br)o2)c1
1100 | O=c1c2cc3c(cc2nc(SCc2nc(-c4ccccc4)no2)n1CC1CCCO1)OCO3 (stereo not given)
1080 | CCC(C)NC(=O)c1cccn1Cc1noc(-c2ccc(Cl)cc2)n1 (stereo not given)
708 | Cc1cccc(NC(=O)C2CC(=O)N(c3ccc4oc(C)nc4c3)C2)c1 (stereo not given)
925 | CCS(=O)(=O)N1CC(=O)N(c2ccc(F)cc2C)C(C)(C(=O)NC2CCCCCC2)C1 (stereo not given)
849 | CCCC(=O)NCCc1c(I)[nH]c2ccc(OC)cc12
588 | Cc1noc(C)c1S(=O)(=O)N1CC(c2nc(Cc3cccnc3)no2)C1

RP-LC retention time [s] | SMILES
770 | COc1ccc(-c2cc(=O)c3c(O)cc(O)cc3o2)cc1OC
1160 | Cc1nn(C(C)C(=O)Nc2ccc(Cl)cc2)c(=O)c2c(-n3cccc3)n(-c3ccccc3)nc12 (stereo not given)
941 | Cc1ccccc1Nc1c(-c2ccccn2)nc2cnccn12
750 | CCC(C)C(NC(=O)c1cccc(Cl)c1)C(=O)Nc1nc2ccccc2[nH]1 (stereo not given)
850 | Cn1c(=O)c2cc(C(=O)Nc3ccc4c(c3)OCO4)cnc2n(-c2ccc(F)cc2)c1=O
755 | CC1(C)C(=O)N(CCN2CCC(C(=O)c3ccc(F)cc3)CC2)c2ccccc21
751 | Cc1ccc(C(=O)CC2(O)C(=O)Nc3ccccc32)cc1C (stereo not given)
670 | Cc1nc2cc(N3CCC(C(=O)NCc4cccs4)CC3)cnc2nc1C
579 | CS(=O)(=O)N1CCC(C(=O)N2CC(c3nc(-c4ccccn4)no3)C2)CC1
988 | O=C(NCc1cccc(Cl)c1)C1CCCN(c2nc3ccsc3c(=O)n2Cc2ccccc2)C1 (stereo not given)
818 | Cc1ccccc1-c1nnc(CSc2ccc(N)cc2)o1
716 | CN(C)c1cnc(-n2cc(NC(=O)c3ccc(C#N)cc3)cn2)nc1
990 | CCOC(=O)c1[nH]c(C)c(CN(Cc2ccco2)C(=O)Nc2cccc(F)c2)c1C
726 | CCOC(=O)C1CCCN(C(=O)CCCSc2ccc(NC(=O)C3CC3)nn2)C1 (stereo not given)
870 | CCOC(=O)CCCSc1nc2sc3c(c2c(=O)[nH]1)CCC3
625 | CC(C)c1nnc(-c2coc(S(=O)(=O)N3CCC(N4CCCCC4)CC3)c2)o1
731 | Cc1cccc(NC(=O)CN2C(=O)C3CCCN3C(=O)c3ccc(F)cc32)c1C (stereo not given)
1070 | CC(C)c1ccc(NC(=O)CC2=C3CCCCC3N(C(C)C)C2=O)cc1 (stereo not given)
